Molecular target: Sentrin-specific protease 6 (Homo sapiens) (UniProt Q9GZR1)
Assay: inhibition of human SENP6 catalytic domain – biochemical, luminescence, set 2, SAR follow-up (AID 588598)
Conditions: recombinant SENP6, Z-RLRGG-aminoluciferin cleavage, 30 min

Chain of Sentrin-specific protease 6 (Homo sapiens) (Q9GZR1 628-1112 limits assumed): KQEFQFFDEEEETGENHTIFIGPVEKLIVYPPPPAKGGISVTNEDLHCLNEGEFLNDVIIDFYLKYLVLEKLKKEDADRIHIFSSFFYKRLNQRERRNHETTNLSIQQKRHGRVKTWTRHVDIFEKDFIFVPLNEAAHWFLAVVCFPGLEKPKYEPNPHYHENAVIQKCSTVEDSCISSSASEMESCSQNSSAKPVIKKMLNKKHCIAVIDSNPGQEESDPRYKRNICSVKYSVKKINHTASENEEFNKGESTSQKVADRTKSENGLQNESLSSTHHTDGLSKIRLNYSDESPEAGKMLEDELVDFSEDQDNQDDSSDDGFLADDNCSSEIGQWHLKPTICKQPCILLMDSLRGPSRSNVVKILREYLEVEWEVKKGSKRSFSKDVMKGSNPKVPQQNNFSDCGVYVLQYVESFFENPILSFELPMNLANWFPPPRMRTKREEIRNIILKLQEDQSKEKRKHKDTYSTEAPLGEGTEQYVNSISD

IC50: 1300 nM
SMILES: O=C(Nc1nc2ccc(Cl)cc2s1)c1cccs1

Reference: PubChem BioAssay AID588598 (Sanford-Burnham Center for Chemical Genomics, 2011)
